The target of the experiment is PRMT7 (TbPRMT7) (Trypanosoma brucei, UniProt Q582G4).
PRMT7 (TbPRMT7), sequence (Q582G4 whole entry): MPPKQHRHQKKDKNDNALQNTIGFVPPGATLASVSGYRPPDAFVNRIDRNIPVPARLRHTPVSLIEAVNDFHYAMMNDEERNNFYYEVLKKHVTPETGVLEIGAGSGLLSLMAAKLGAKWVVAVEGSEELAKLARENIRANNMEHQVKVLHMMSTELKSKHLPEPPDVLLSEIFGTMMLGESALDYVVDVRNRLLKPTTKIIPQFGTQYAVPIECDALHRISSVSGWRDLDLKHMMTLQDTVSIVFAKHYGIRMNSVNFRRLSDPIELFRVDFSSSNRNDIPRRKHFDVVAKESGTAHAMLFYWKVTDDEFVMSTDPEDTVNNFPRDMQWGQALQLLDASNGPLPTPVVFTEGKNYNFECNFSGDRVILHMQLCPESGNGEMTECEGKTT

`C[S+](CC[C@H](N)C(=O)O)C[C@H]1O[C@@H](n2nnc3c(N)ncnc32)[C@H](O)[C@@H]1O` (stereo partly shown) [8-aza-SAM]: the Km is 15.3 ± 0.7 µM.

The values above are taken from article PMC5676521 (Chemical Science, 2017).
